Assay results as given in article PMC12507957 (Drug Delivery and Translational Research, 2025).
Read-outs that look alike come from different tables or passages of the source.

Columns and labels:
[1] = beagle dogs; cited from earlier work
[2] = Stability studies of MTG in simple solvent systems with and without BHT; format: physicochemical
Description: (§1) Samples were analysed using Shimadzu liquid chromatographic system (Kyoto, Japan) with SPD-20A UV–vis detector set at 254 nm. A reverse phase ZORBAX Eclipse Plus C18 column (Agilent Technologies, 150 × 4.6 mm ID × 3.5 μm) coupled with a C18 guard column (Phenomenex SecurityGuard™, 4 × 3.0 mm ID × 5 μm) was employed as the stationary phase. A gradient elution method with acetonitrile and 0.1%v/v of formic acid as the mobile phase (30:70 to 70:30 (v/v) over 1 min and held until 4 min; then returned to 30:70 (v/v) from 4 to 6 min and held up until 10 min) at a flow rate of 1.2 mL/min was used. The injection volume was set at 100 μL and the total run time was 10 min with a retention time of ~ 4 min. The limits of detection and quantification were 0.47 and 1.43 μg/mL for a lower concentration drug range (0.5–10 μg/mL) and 4.29 and 13.01 μg/mL for a higher concentration drug range (10–175 μg/mL), respectively. The linearity for both calibration curves was excellent (R^2 > 0.999).

[3] = In vitro drug release of MTG from gels (Franz cell); details: nylon membrane, time point not clearly stated (steady release up to 2 h)
Description: The in vitro permeation study was performed in triplicate using Franz diffusion cell apparatus with a diffusion area of ~ 0.8 cm^2 and a receptor volume of ~ 3 mL. The porcine skin was thawed at room temperature and cut into an appropriate size before mounting on the Franz diffusion cells. The receptor compartment was filled with PBS containing 0.02%w/v of sodium azide and a selected antioxidant. The Franz diffusion cells were placed into a water bath to maintain the skin temperature at 32 ± 0.5 °C. […] After 48-h permeation studies, the mass balance studies were performed. The samples were extracted for MTG content overnight before HPLC analysis.
BHT at the optimised concentration was also added accordingly. The gels were evaluated for their drug content by mixing the gel in methanol for overnight extraction of MTG before HPLC analysis (Sect. HPLC analysis). In vitro drug release studies were carried out with a similar experimental setup as described in Sect. In vitro permeation and mass balance studies but porcine skin was replaced with a 0.45 µm nylon membrane filter and 40 μL of gel was loaded on the membrane at the donor compartment. Subsequent in vitro permeation and mass balance studies were performed as described in Sect. In vitro permeation and mass balance studies by loading 40 μL of the gel on the skin.

[4] = cited from earlier work
[5] = Stability of MTG in PBS receptor medium with antioxidants (DTT, ascorbic acid); format: physicochemical; details: 32 °C
Description: The drug content was analysed using HPLC (Sect. HPLC analysis) at 24, 48, 72 and 96 h.
as §1

CC[C@@H]1CN2CCc3c([nH]c4cccc(OC)c34)[C@@H]2C[C@@H]1/C(=C\OC)C(=O)OC [MTG, mitragynine]
Oral bioavailability [1]: 69.6%
Percentage recovery of MTG ([2]; 200 μg/mL in DMSO without BHT, 32 °C, after 96 h): 67.68 ± 1.22%
Percentage recovery of MTG ([2]; 200 μg/mL in Labrasol with 0.01%w/v BHT, 32 °C, after 96 h): 46.34 ± 2.49%
Percentage recovery of MTG ([2]; 200 μg/mL in Labrasol without BHT, 32 °C, after 96 h): 4.39 ± 0.70%
Percentage recovery of MTG ([2]; 200 μg/mL in Lauroglycol without BHT, 32 °C, after 96 h): 30.84 ± 1.21%
Percentage recovery of MTG ([2]; 200 μg/mL in Maisine without BHT, 32 °C, after 96 h): 19.65 ± 1.17%
Percentage recovery of MTG ([2]; 200 μg/mL in PG without BHT, 32 °C, after 96 h): 73.82 ± 1.05%
Percentage recovery of MTG ([2]; 200 μg/mL in Transcutol without BHT, 32 °C, after 96 h): 40.23 ± 5.46%
Percentage recovery of MTG ([2]; DMSO, PG and Transcutol with at least 0.05%w/v of BHT): above 80%
Percentage recovery of MTG ([2]; in all solvents (without BHT) after 96 h): < 80%
Percentage recovery of MTG ([2]; remaining solvents (Transcutol, Lauroglycol, Maisine, Labrasol) without BHT, after 96 h): < 50%
Drug release percentage ([3]; 1% MTG gel with DMSO): 65.07 ± 7.59%
Drug release percentage ([3]; 1% MTG gel with PG): 57.45 ± 3.18%
Drug release percentage ([3]; 1% MTG gel with Transcutol): 78.48 ± 6.17%
MTG loss ([4]; basic environments (pH 8 and 10), 40 °C over 8 h): ≤ 20%
MTG loss ([4]; pH 4 over 24 h): ~ 11.2%
Percentage recovery of MTG ([5]; 50 µg/mL in PBS with DTT (0.01-0.1%w/v), 96 h, lowest recovery): ~ 81%
Percentage recovery of MTG ([5]; 50 µg/mL in PBS with ascorbic acid (0.01-0.1%w/v, regardless of concentration), 96 h): > 99%
Percentage recovery of MTG ([5]; 50 µg/mL in PBS without antioxidant, after 96 h): ~ 96%
